{
  "source": "patent US6734182B2",
  "about": "“Aryl sulfonamides and sulfamide derivatives and uses thereof” (Synaptic Pharmaceutical Corporation, priority 1995, dated 2004)",
  "system": "NPY-induced feeding behavior in satiated rats",
  "assay": "NPY-induced food intake in satiated rats",
  "assay_type": "in vivo, rat",
  "settings": "compound 30 mg/kg i.p., then 300 pmole NPY i.c.v., 4 hours after NPY, in g (unit assumed)",
  "description": "For these determinations food intake maybe measured in normal satiated rats after intracerebroventricular application (i.c.v.) of NPY in the presence or absence of the test compound. Male Sprague Dawley rats ciba-Geigy AG, Sisseln, Switzerland weighing between 180 g and 220 g are used for all experiments. The rats are individually housed in stainless steel cages and maintained on an 11:13 h light-dark cycle (lights off at 18:00 h) at a controlled temperature of 21-23° C. at all times. Water and food (NAFAG lab chow pellets, NAFAG, Gossau, Switzerland) are available ad libidum.\nRats under pentobarbital anesthesia are stereotaxically implanted with a stainless steel guide cannula targeted at the right lateral ventricle. Stereotaxic coordinates, with the incisor bar set −2.0 mm below interaural line, are: −0.8 mm anterior and +1.3 mm lateral to bregma. The guide cannula is placed on the dura. […]\nFood intake may be measured by placing preweighed pellets into the cages at the time of NPY injection. […] The food intake of animals treated with test compound may be calculated as a percentage of the food intake of control animals, i.e., animals treated with vehicle. Alternatively, food intake for a group of animals subjected to the same experimental condition may be expressed as the mean ±S.E.M. Statistical analysis is performed by analysis of variance using the Student-Newman-Keuls test. […]",
  "data": [
    {"smiles": "Cl.O=S(=O)(NCC1CCC(CNCC2CCc3ccccc3C2)CC1)c1cccc2ccccc12", "note": "(stereo not shown) [Example 32]", "values": [
      {"measurement": "NPY-induced cumulative food intake (NPY + compound), mean ± S.E.M.", "value": "1.5 ± 0.6"}
    ]}
  ]
}
